Marks after values point to notes of the source that are not given here.
Legend:
[1] = system: ventricular papillary muscle cell of guinea pig; assay: Action potential of the ventricular papillary muscle cell of guinea pig (electrophysiological recording); format: cell-based; conditions: n = 6, x ± SD
Protocol: Method: One guinea pig was taken to violently hit the back of the brain such that it fainted. The common carotid artery was cut off for bleeding to kill the guinea pig. The chest was incised to expose the heart, and the ventricle was cut open along the interventricular septum to expose the lumen of the left ventricle. The papillary muscles were quickly taken out and placed in a Kreb's solution saturated with O2 (mixed gas of 95% O2 and 5% CO2) at 0° C. After the microscopic dressing, the papillary muscle specimen was fixed with a stainless steel needle on the silicone rubber at the bottom of the perfusion bath, and perfused with the oxygen-saturated Kreb's solution. The relevant parameters for perfusion: the temperature was 37±0.5° C., and the flow rate was 4 mL/min.
Cellular action potentials were recorded using a conventional electrophysiological method. The glass electrode filled with 3M KCl saturated solution and having a tip resistance of 15-30 MΩ was fixed on the microelectrode manipulator MP-2. The glass electrode was gently inserted into the superficial layer of the prepared papillary muscle specimen using a microelectrode pusher. The electrode was adjusted to provide the predetermined bioelectrical stimulation with the triple-channel SEN-7203 electronic stimulator and SS-202 J isolator. The bioelectrical signal was amplified by the MEZ-8301 amplifier and then input to the computerized electrophysiological recording and analysis system Powerlab 4/25. Subsequently, the relevant parameters of the action potential for the ventricular papillary muscle were analyzed through the analysis system. The relevant parameters for electrical stimulation: 30 ms latency, 7 ms wavewidth, 1 Hz frequency, 52.1 my stimulation intensity.
In the compound screening test stage, after the ventricular papillary muscle specimen of the guinea pig was fixed, it was first perfused with a normal Kreb's solution for about 85 minutes for stabilization, and the relevant parameters of the cellular action potential before administration were recorded at about 80 min after the start of perfusion. The three-limb tube was used to convert the perfusates containing the title compounds. The title compounds were continuously perfused for about 25 min successively with low (0.0005 μM), medium (0.005 μM), and high (0.05 μM) concentrations, respectively. At about 20 min after the start of drug perfusions at different concentrations, the relevant parameters of the action potentials for the ventricular papillary muscle of guinea pig were observed and recorded, respectively. The normal Kreb's solution was used to perfuse and elute for about 25 min during the intervals between drug perfusions at different concentrations.
The experiment was divided into the following five groups with 6 animals in each group: a vehicle control group, a 369 low dose (0.0005 μM) group, a 369 medium dose (0.005 μM) group, a 369 high dose (0.05 μM) group, and an amiodarone (10 μM) positive control group. After the ventricular papillary muscle specimen of the guinea pig was fixed, it was first perfused with a normal Kreb's solution for about 85 minutes for stabilization, and the relevant parameters of the cellular action potential before administration were recorded at about 80 min after the start of perfusion. According to groups, the three-limb tube was configured to convert the perfusates containing the vehicle, positive control, or Compound 369 at the corresponding concentrations to continuously perfuse for about 25 min. At about 20 min after the start of the perfusions, the relevant parameters of the action potentials for the ventricular papillary muscle of guinea pig were observed and recorded.

guinea pig heart = assay: Atrial fibrillation induced by high- and low-potassium Langendorff perfusion of the guinea pig heart; conditions: 1 μM; within 60 min of low-potassium perfusion
Text: Method: a total of 24 guinea pigs were divided into 4 groups according to body weight, and were sacrificed. The heart was quickly taken out, and the blood was squeezed in the ice bath perfusion solution. The heart was quickly transferred in the Langendorff perfusion system, and the perfusion at a constant rate was started by turning on the oxygen-saturated perfusate. One end of the electrode was placed at the cardiac apex, and one end was placed at the right atrium (the position of the atrial appendage). The electrocardiogram was recorded on the computer.
After the heart was stabilized, 10 min after the perfusion of high-K perfusate, blank vehicle, 0.1 μM, 1 μM, and 10 μM of Compound 369, 1 μM Amiodarone and Cyclovirobuxine D were simultaneously administrated and the high K perfusion was continued for 20 min, respectively. Then, the high K perfusion was removed to administrate the low-K perfusate, and the electrocardiogram was obtained at the same time to record whether there was atrial fibrillation within 60 min of low-potassium perfusion.

SD rats [2] = assay: Rat myocardial ischemia model with coronary artery ligation and reperfusion (arrhythmia incidence); format: in vivo; conditions: injection (sublingually) 5 min before ischemia
Text: Method: SD rats were anesthetized with pentobarbital, and a cervical midline incision was made to separate and cut off the trachea such that it was connected to a respirator. The skin was cut along the midline of the left clavicle of the rat, and the chest was opened between the left third and fourth ribs to gently squeeze out the heart. The pericardium was opened, the needle was inserted at the left edge of the pulmonary artery cone and 2 mm at the lower edge of the left atrial appendage. The 6-0 non-invasive suture was threaded through the superficial myocardium, with the left anterior descending coronary artery (LAD) located thereon. After stabilization for 5 min, a double-layer plastic cannula was put on, and the cable tie was tighten to complete the myocardial ischemia induced by left coronary artery occlusion. The criterion for myocardial ischemia is the occurrence of myocardial infarction (St-segment ran up or T-wave was shown as high sharp wave) in the electrocardiogram and the presence of local cyanosis in the heart. After 5 min of myocardial ischemia, the inner cannula was withdrawn, that is, the wire knot was released for reperfusion, and the electrocardiogram of reperfusion in the rat was recorded.
The administration was performed at 5 min before the ischemia by coronary artery ligation, and the administration mode was injection administration (sublingually).

SD rats [3] = assay: Single-dose toxicity (MTD) in SD rats; format: in vivo; conditions: SD rat; single intravenous injection
Text: (§1) The results of the experimental study on the toxicity of Compound 369 administrated through a single intravenous or intragastrical administration in SD rats and KM mice are shown in Table 9.

KM mice = assay: Single-dose toxicity (MTD) in KM mice; format: in vivo; conditions: KM mouse; single intragastrical administration
Text: as §1

[4] = Pharmacokinetics in SD rats; format: in vivo, rat; conditions: SD rats, 2 mg/kg
Protocol: Method: twelve SD male rats were divided into four groups: 2 mg/kg of Compound 369 or cyclovirobuxine D was single dose through the intravenous injection or intragastrical administration, respectively. In the intravenous and intragastrical groups, blood samples (about 0.3 Ml) were collected from the posterior orbital venous plexus pro-dose and 0.25 h, 0.5 h, 1 h, 2 h, 4 h, 6 h, 8 h, and 12 h post-dose. The concentrations of Compound 369 and cyclovirobuxine D in plasma samples were determined by LC-MS/MS, and the pharmacokinetic parameters were calculated by DAS.3.0 software.

[5] = Pharmacokinetics in Beagle canines; format: in vivo; conditions: Beagle canines; 2 mg/kg; intragastrical administration
Protocol: Method: Six healthy male Beagle canines were selected and divided into two groups. 2 mg/kg of Compound 369 or cyclovirobuxine D was administrated intragastrically, respectively. Blood samples (about 2 mL) were collected from the limb venous of canines 0 h before administration as well as 0.25 h, 0.5 h, 1 h, 2 h, 4 h, 6 h, 8 h, and 12 h after administration. The concentrations of Compound 369 and cyclovirobuxine D in plasma samples were determined by LC-MS/MS, and the pharmacokinetic parameters were calculated by DAS.3.0 software.

[6] = system: ventricular myocytes of guinea pig; conditions: literature, cited from earlier work

Structure (SMILES): CCCCc1oc2ccccc2c1C(=O)c1cc(I)c(OCCN(CC)CC)c(I)c1 [Amiodarone, reference compound]
- percent change in action potential duration at 10 µM ([1]; Cavia porcellus, 20 min, 10 μM, read-out: APD, Change rate (%)): 56.8%
- APD50, Change rate (%) ([1]; 10 μM): 93.34% ± 53.59%^b
- APD50, Post-administration ([1]; 10 μM): 0.0590 ± 0.0269^a
- APD90, Change rate (%) ([1]; 10 μM): 68.91% ± 33.59%^b
- APD90, Post-administration ([1]; 10 μM): 0.0862 ± 0.0275^a
- APD, Post-administration ([1]; 10 μM): 0.1028 ± 0.0258^a
- APD50, Pre-administration ([1]; 10 μM group, baseline): 0.0313 ± 0.0131
- APD90, Pre-administration ([1]; 10 μM group, baseline): 0.0524 ± 0.0175
- Incidence (%) of atrial fibrillation (guinea pig heart): 17%
- Number of animals developing atrial fibrillation (guinea pig heart): 1
- Death (%) (SD rats [2]; 3 mg/kg): 13%
- Death n (SD rats [2]; 3 mg/kg): 1
- Ventricular fibrillation (%) (SD rats [2]; 3 mg/kg): 38%
- Ventricular fibrillation n (SD rats [2]; 3 mg/kg): 3
- Ventricular premature beat (%) (SD rats [2]; 3 mg/kg): 100%
- Ventricular premature beat n (SD rats [2]; 3 mg/kg): 8
- Ventricular tachycardia (%) (SD rats [2]; 3 mg/kg): 87%
- Ventricular tachycardia n (SD rats [2]; 3 mg/kg): 7

Structure (SMILES): CN[C@@H](C)[C@H]1[C@H](O)C[C@@]2(C)[C@@H]3CC[C@H]4C(C)(C)[C@@H](NC)CC[C@@]45C[C@@]35CC[C@]12C [Cyclovirobuxine D, reference compound]
- Incidence (%) of atrial fibrillation (guinea pig heart): 83%
- Number of animals developing atrial fibrillation (guinea pig heart): 5
- Death (%) (SD rats [2]; 1 mg/kg): 50%
- Death n (SD rats [2]; 1 mg/kg): 3
- Ventricular fibrillation (%) (SD rats [2]; 1 mg/kg): 83%
- Ventricular fibrillation n (SD rats [2]; 1 mg/kg): 5
- Ventricular premature beat (%) (SD rats [2]; 1 mg/kg): 100%
- Ventricular premature beat n (SD rats [2]; 1 mg/kg): 6
- Ventricular tachycardia (%) (SD rats [2]; 1 mg/kg): 100%
- Ventricular tachycardia n (SD rats [2]; 1 mg/kg): 6
- Maximum tolerance dose (MTD) (SD rats [3]): 5 mg/kg
- Maximum tolerance dose (MTD) (KM mice): 400 mg/kg
- AUCt ([4]; intragastrical administration): 110.6 ng·h/mL
- Cmax ([4]; intragastrical administration): 16.30 ng/mL
- F ([4]; intragastrical administration): 36%
- T1/2 ([4]; intragastrical administration): 18.85 h
- Tmax ([4]; intragastrical administration): 2.75 h
- AUCt ([4]; intravenous injection): 310.0 ng·h/mL
- Cmax ([4]; intravenous injection): 146.2 ng/mL
- T1/2 ([4]; intravenous injection): 8.54 h
- Tmax ([4]; intravenous injection): 0.25 h
- AUCt [5]: 274.3 ng·h/mL
- Cmax [5]: 19.09 ng/mL
- T1/2 [5]: 15.90 h
- Tmax [5]: 3.55 h
- Effect on APD of the action potential (in words) ([6]; 0.024 μM): can prolong the APD
- Spontaneous activity frequency of cardiomyocytes (in words) ([6]; 0.012-0.036 μM): slow down or even disappear

Source: patent US10568892B2, “Cycloartane tetracyclic triterpenoid compound, preparation method therefor and use thereof” (Hefei Cosource Pharmaceuticals Inc., priority 2016, dated 2020)
